From ChEMBL document CHEMBL5512605, “Targeted regulated cell death with small molecule compounds in colorectal cancer: Current perspectives of targeted therapy and molecular mechanisms” (Eur J Med Chem, 2024) come the findings set out here.

pIC50: −log10 of the molar value.

Assay [1] relates to SW480. In words: Antiproliferative activity against human SW480 cells assessed as inhibition of cell growth measured after 48 hrs by CCK-8 method. Type of assay: functional, cell-based. The following applies: SW480, 48 h. (Formazan colour is commonly taken as a measure of viable cells.)
The subject of assay [2] is SW-620. In words: Antiproliferative activity against human SW620 cells assessed as inhibition of cell growth measured after 48 hrs by CCK-8 method. Type of assay: functional, cell-based. The following applies: SW-620, 48 h.
For assay [3], the system named is DLD-1. Put plainly: Antiproliferative activity against human DLD-1 cells assessed as inhibition of cell growth measured after 48 hrs by CCK-8 method. The conditions noted are these: DLD-1, 48 h. Type of assay: functional, cell-based.
For assay [4], the system named is HCT-116. In words: Antiproliferative activity against human HCT-116 cells assessed as inhibition of cell growth measured after 48 hrs by CCK-8 method. Type of assay: functional, cell-based. The conditions noted are these: HCT-116, 48 h.
Assay [5] concerns HT-29. Put plainly: Antiproliferative activity against human HT-29 cells assessed as inhibition of cell growth measured after 48 hrs by CCK-8 method. It counts as functional, cell-based. The conditions noted are these: HT-29, 48 h.
For assay [6], the system named is HT-29. In words: Induction of cell cycle arrest in human HT-29 cells measured after 24 to 48 hrs by PI staining based flow cytometry analysis. Type of assay: functional.
Assay [7] concerns SW-620. In words: Antiproliferative activity against human SW620 cells. It counts as functional, cell-based.
The test system of assay [8] is HT-29. In words: Antiproliferative activity against human HT-29 cells assessed as inhibition of cell viability incubated for 24 hrs by CCK-8 method. Type of assay: functional, cell-based. The conditions noted are these: HT-29, 24 h.
The test system of assay [9] is SW480. In words: Antiproliferative activity against human SW480 cells assessed as inhibition of cell growth incubated for 24 hrs by CCK-8 method. The following applies: SW480, 24 h. It counts as functional, cell-based.
For assay [10], the system named is HCT-116. Put plainly: Antiproliferative activity against human HCT-116 cells assessed as inhibition of cell viability by CCK-8 method. Type of assay: functional, cell-based.
Assay [11] concerns DLD-1. Put plainly: Antiproliferative activity against human DLD-1 cells assessed as inhibition of cell viability by CCK-8 method. Type of assay: functional, cell-based.
Assay [12] concerns HCT-116. Put plainly: Cytotoxicity against human HCT-116 cells assessed as inhibition of cell growth incubated for 24 hrs by MTT assay. Type of assay: functional.
In assay [13] the test system is HCT-116. In words: Antiproliferative activity against human HCT-116 cells assessed as inhibition of cell growth measured after 24 hrs by CellTiter 96 Aqueous One Solution Cell Proliferation Assay. It counts as functional, cell-based. The conditions noted are these: HCT-116, 24 h.
The subject of assay [14] is SW480. Put plainly: Antiproliferative activity against human SW480 cells assessed as inhibition of cell growth measured after 24 hrs by CellTiter 96 Aqueous One Solution Cell Proliferation Assay. It counts as functional, cell-based. The following applies: SW480, 24 h.
For assay [15], the system named is HCT-116. Put plainly: Antiproliferative activity against human HCT-116 cells assessed as inhibition of cell growth measured upto 72 hrs by CCK-8 method. The conditions noted are these: HCT-116, 72 h. Type of assay: functional, cell-based.
Assay [16] concerns HCT-116. Put plainly: Antiproliferative activity against human HCT-116 cells assessed as inhibition of cell viability measured after 24 hrs by CCK-8 method. It counts as functional, cell-based. The conditions noted are these: HCT-116, 24 h.
Assay [17] deals with HT-29. Put plainly: Antiproliferative activity against human HT-29 cells assessed as inhibition of cell viability measured after 24 hrs by CCK-8 method. Type of assay: functional, cell-based. The conditions noted are these: HT-29, 24 h.
In assay [18] the test system is SW480. Put plainly: Cytotoxicity against human SW480 cells assessed as inhibition of cell proliferation measured after 48 hrs by MTT assay. Type of assay: functional, cell-based. The following applies: time 48 hrs.
The subject of assay [19] is SW-620. Put plainly: Antiproliferative activity against human SW620 cells assessed as inhibition of cell growth. It counts as functional, cell-based.
Assay [20] deals with HCT-116. Put plainly: Antiproliferative activity against human HCT-116 cells assessed as inhibition of cell growth. It counts as functional, cell-based.
In assay [21] the test system is SW-620. Put plainly: Antiproliferative activity against human SW620 cells measured upto 60 hrs by MTS assay. It counts as functional.
Assay [22] concerns HCT-116. Put plainly: Antiproliferative activity against human HCT-116 cells. Type of assay: functional, cell-based. The following applies: Homo sapiens, HCT-116.
Assay [23] has as its system HCT-116. In words: Antiproliferative activity against human HCT-116 cells expressing wild type p53 measured after 48 hrs by MTT assay. Type of assay: functional, cell-based. The conditions noted are these: HCT-116, 48 h.
The test system of assay [24] is HCT-116. In words: Antiproliferative activity against human HCT-116 cells incubated for 24 hrs by MTT assay. Type of assay: functional.
The test system of assay [25] is HCT-116. Put plainly: Antiproliferative activity against human HCT-116 cells measured upto 72 hrs by CCK-8 method. Type of assay: functional.
The test system of assay [26] is SW480. Put plainly: Antiproliferative activity against human SW480 cells measured upto 72 hrs by CCK-8 method. It counts as functional.
In assay [27] the test system is LoVo. Put plainly: Antiproliferative activity against human LoVo cells measured upto 72 hrs by CCK-8 method. Type of assay: functional.

Take `CCc1ccc2c3[nH]c4ccccc4c3cc[n+]2c1`: the pIC50 (as a rule, the IC50 on a negative log10 scale, so that one unit is a factor of ten) in [1] is 4.81; in assay [2] it was 4.98; in assay [3], 4.97; in [4], 5.09; in assay [5], 5.02.
Regarding `N#CC1=C(N)Oc2ccc3ccccc3c2C1c1ccc(F)cc1` (centres undefined), in assay [6], the negative logarithm of the IC50 (pIC50) was 4.22.
Take `CC(/C=C/C(=O)NO)=C\[C@@H](C)C(=O)c1ccc(N(C)C)cc1` [TRICHOSTATIN]: in assay [7], the negative-log IC50 (pIC50) was 5.61.
For the molecule `CC(CN1c2ccccc2Sc2ccccc21)N(C)C` (centres undefined) [PROMETHAZINE], the negative logarithm of the IC50 (pIC50) in assay [8] was 4.56; in [9], 4.48.
In the case of CETUXIMAB, the IC in assay [10] and in assay [11] was 100 µM each time.
Take `NCCCNCCCCNCCCN1C(=O)c2ccc3c4c(ccc(c24)C1=O)C(=O)N(CCCNCCCCNCCCN)C3=O`: the IC in [12] worked out at 1 µM.
With `C[C@@H]1CC[C@]2(C(=O)O)CC[C@]3(C)C(=CC[C@@H]4[C@@]5(C)CC[C@H](O[C@@H]6OC[C@H](O)[C@H](O)[C@H]6O)C(C)(C)[C@@H]5CC[C@]43C)[C@@H]2[C@]1(C)O`, the pIC50 in assay [13] is 4.97; in assay [14] it was 4.95.
Turning to `CC(=O)Oc1ccccc1C(=O)O` [ASPIRIN], the negative-log IC50 (pIC50) in assay [15] is 2.10.
In the case of `O=c1cc(-c2ccc(O)cc2)oc2cc(O)c([C@@H]3O[C@H](CO)[C@@H](O)[C@H](O)[C@H]3O)c(O)c12` [ISOVITEXIN], the pIC50 in assay [16] was 4.53; in assay [17], 4.43.
As for `CC(C)c1cccc(C(C)C)c1O` [PROPOFOL], the IC in assay [18] stood at 12.5 µM.
Regarding `CC1=C(O)C(=O)C=C2C1=CC=C1[C@@]2(C)CC[C@@]2(C)[C@@H]3C[C@](C)(C(=O)O)CC[C@]3(C)CC[C@]12C` [CELASTROL], the pIC50 in assay [19] and in assay [20] was 6.54 in each case.
In assay [21], `COc1cc2c(=O)oc3c(OC)c(O)cc4c(=O)oc(c1OC)c2c34` had an IC of 15 µM.
Take `COc1cc(C[C@@H](CO[C@@H]2O[C@H](CO)[C@@H](O)[C@H](O)[C@H]2O)[C@H](CO[C@@H]2O[C@H](CO)[C@@H](O)[C@H](O)[C@H]2O)Cc2ccc(O)c(OC)c2)ccc1O`: the negative-log IC50 (pIC50) in assay [22] was 4.61.
Take `Cc1c(CO)c(CO)c2n1[C@H](c1ccccc1)SC2`: the pIC50 in [23] is 6.01.
For `COc1ccccc1[C@@H](NS(=O)(=O)c1ccc2[nH]c(=O)ccc2c1)C(=O)N(Cc1ccco1)Cc1cccs1`, the IC in [24] amounted to 20 µM.
As for `COC(=O)[C@H](C)NC(=O)N[C@]1(C)CC[C@]2(C)CC[C@]3(C)C4=CC=C5C(=CC(=O)C(O)=C5C)[C@]4(C)CC[C@@]3(C)[C@@H]2C1`, the negative logarithm of the IC50 (pIC50) in assay [19] and in [20] was 6.55 in each case.
For the molecule `C[C@H]1[C@H](C)CC[C@]2(C(=O)O[C@@H]3O[C@H](CO[C@@H]4O[C@H](CO)[C@@H](O[C@@H]5O[C@@H](C)[C@H](O)[C@@H](O)[C@H]5O)[C@H](O)[C@H]4O)[C@@H](O)[C@H](O)[C@H]3O)CC[C@]3(C)C(=CC[C@@H]4[C@@]5(C)C[C@@H](O)[C@H](O)[C@@](C)(CO)[C@@H]5CC[C@]43C)[C@H]12`, the IC in [25], in [26] and in assay [27] was 2 µM in each case.
